According to patent publication US8722654B2, “Lipoxin analogs as novel inhibitors of angiogenesis” (The Brigham and Women's Hospital, Inc., priority 2001, dated 2014):

How the values were obtained:
[1] = tested on: HUVEC; experiment: Endothelial cell migration, 48-well chemotaxis chamber; format: cell-based, human; settings: for induction of endothelial cell migration, compound alone: 100 nM, no VEGF
Description: VEGF, ATL-1 or vehicle were added to the lower wells of a 48-well chemotaxis chamber (NeuroProbe, Cabin John, Md.). The wells were overlaid with a 10 μm pore size polycarbonate filter coated with 0.1% gelatin. HUVEC (1×10^6) were placed in the upper wells and the chamber was incubated (37° C., 5% CO2 for 12 h). Following incubations, filters were removed, scraped of cells from the upper surface, fixed and stained with Diff-Quik (Dade Behring, Newark, Del.). Cells that migrated across the filter toward the lower surface were enumerated by light microscopy; four fields were counted at high magnification (100×). Incubations were performed in triplicate. To assess inhibition, endothelial cells were suspended in media with vehicle or ATL-1 for 15 min before placement in the chamber.

[2] = tested on: HUVEC; experiment: Inhibition of VEGF-stimulated HUVEC proliferation (MTT); format: cell-based, human; settings: for % inhibition of VEGF-stimulated proliferation: equimolar 10 nM, representative experiment
Description: (§1) Human umbilical vein endothelial cells (HUVEC) were isolated by 0.1% collagenase digestion (Worthington Biochemical, Bedford, Mass.) and propagated on gelatin-coated (0.1%) tissue culture plates in medium 199 (Gibco BRL, Grand Island, N.Y.) supplemented with 20% heat-inactivated fetal bovine serum (BioWhittaker, Walkersville, Md.), 50 μg/ml of endothelial cell mitogen (Biomedical Technologies, Stoughton, Mass.), 8 U/ml heparin (APP, Los Angeles, Calif.), 50 U/ml penicillin and 15 μg/ml streptomycin. Only passages 2 and 3 were used in reported experiments.
(§2) HUVEC (5×10^3) were plated in 96-well plates coated with 0.1% gelatin for 1 h at room temperature. After 24 h, the medium was removed and replaced with fresh medium 199 supplemented with 5% fetal bovine serum and different concentrations of recombinant human VEGF165 (R&D Systems, Minneapolis, Minn.), LTD4 or LTB4. Endothelial cells were enumerated after 72 h using the MTT® assay (Sigma, St. Louis, Mo.) (15). ATL-1 was prepared as in Clish et al. (13). Percent inhibition was evaluated in a similar manner and included a 15 minute incubation (37° C.) with 15-epi-lipoxin A4, 15-epi-16-(para-fluoro)-phenoxy-lipoxin A4 methyl ester (ATL-1), LXA4, 15-epi-LXA4 or 15-R/S-methyl, LXA4 prior to the addition of agonists. All incubations were performed in triplicate. Before each experiment the integrity and concentration of ATL-1, LXA4, 15-epi-LXA4 or 15-R/S-methyl, LXA4 was assessed by physical methods including LC/MS/MS and UV (13).

[3] = tested on: HUVEC; experiment: HUVEC proliferation induced by the compound alone (MTT); format: cell-based, human
Description: as §1, §2

[4] = tested on: HUVEC; experiment: Inhibition of LTD4-stimulated HUVEC proliferation (MTT); format: cell-based, human; settings: LTD4 10 nM; ATL-1 0.1-100 nM; read-out: IC50, antagonism of mitogenic action of LTD4
Description: as §1
as §2, with “Endothelial cells were enumerated after 72 h using the MTT® assay (Sigma, St. Louis, Mo.) (15). ATL-1 was prepared as in Clish et al. (13).” left out, “All incubations were performed in triplicate.” left out

[5] = tested on: HUVEC; experiment: HUVEC viability, trypan blue exclusion assay; format: cell-based, human; settings: after exposure to ATL-1
[6] = tested on: HUVEC; experiment: Quantitative determination of DNA fragmentation (apoptosis); format: cell-based, human; settings: 100 nM alone or with VEGF 3 ng/ml; n=2, d=3
Description: DNA fragmentation in individual apoptotic cells was quantitated using a photometric enzyme immunoassay (Apotosis detection kit: R&D Systems). HUVECs grown in 96-well microtiter plates (5×10^3 cells/well) were incubated for 3 days, fixed with 3.7% formaldehyde, and permeabilized with proteinase K before the labeling. Biotinylated nucleotides are incorporated onto the DNA fragments and detected by using steptavidin-horseradish peroxidase conjugate followed by the substrate TACS-Sapphire.

[7] = tested on: murine air pouch; experiment: Inflammatory angiogenesis, VEGF-treated murine air pouch; format: in vivo, mice (BALB/c)
Description: Angiogenesis was assessed with murine air pouches that were raised via subcutaneous injection of sterile air (3 ml) beneath the dorsal skin of anesthetized mice (BALB/c, male 6-8 wk). After 24 hrs, ATL-1 (10 μg/pouch) or vehicle was delivered locally, immediately before the injection of VEGF (1 μg/pouch). The vascular content was assessed by the formation of vascular casts (as in 16). Briefly, mice were anesthetized (at 144 h) and peripheral vasodilation was raised by placing the animals in a heated jacket (40° C., 10 min). Vascular casts were formed by the i.v. injection of 1 ml 5% carmine red (Sigma) in 5% gelatin solution warmed to 40° C. Air pouch linings were dissected and weighed. The tissue was then dissolved in 2 ml of 3 N NaOH solution for 0.5 h, 21° C. and completely digested in hot water (56° C.) for 10 min. Digested samples were centrifuged (2500 rpm, 15 min) and filtered through a 0.45 μm filter. The dye content was quantified employing a 96-well plate spectrophotometer at 530 nm using a calibration curve. The results were expressed as vascular index (VI) as micrograms carmine dye/milligram weight of tissue, for n=4 animals/group. For visualization of the vasculature, the dorsal surface of the pouches was excised and fixed in formalin for 48 h. The tissues were dehydrated with 100% ethanol (5 days, 4° C.) and cleared by immersion in cedar wood oil for 2 weeks. In another set of experiments, mice were anesthetized and injected i.v. with 200 μl of 0.05 g/ml fluorescein isothiocyanate-dextran (Sigma) in PBS at 144 h immediately before sacrifice. Dissected linings were fixed, mounted on glass slides and examined for fluorescence (Nikon Eclipse model E600). In both protocols, the observers were not blinded to the treatments.
Air pouch membranous tissues were fixed in 10% buffered formalin overnight and processed for paraffin embedding. Five-micrometer paraffin sections of membrane tissue cut on face were used for immunohistochemistry for CD31 expression. Briefly, slides were deparaffinized and pretreated in 0.25% trypsin (Sigma Chemical) for 20 min at 37° C., followed by washing in distilled water. All further steps were performed at room temperature in a hydrated chamber. Slides were pretreated with Peroxidase Block (DAKO, Carpinteria, Calif.) for 5 min to quench endogenous peroxidase activity, followed by a 1:5 dilution of goat serum in 50 Mm Tris-Cl, pH 7.4, for 20 min to block nonspecific binding sites. Primary rat anti-murine CD31 antibody (BD PharMingen, San Diego, Calif.) was applied at a 1:100 dilution in 50 mMTris-Cl, pH 7.4, with 3% goat serum for 1 h. After washing in 50 mM Tris-Cl, pH 7.4, secondary rabbit anti-rat antibody (DAKO) was applied at a 1:200 dilution in 50 mM Tris-Cl, pH 7.4, with 3% goat serum for 30 min. Slides were washed again in 50 mM Tris-Cl, pH 7.4, and goat anti-rabbit horseradish peroxidase-conjugated antibody (Envision detection kit: DAKO) was applied for 30 min. After further washing, immunoperoxidase staining was developed using a DAB chromogen kit (DAKO) per the manufacturer and counterstained with hematoxylin.

[8] = Mean arterial pressure after i.v. dosing; format: in vivo; settings: 10 μg/mouse i.v.

CCCCCC(C)(O)/C=C/C=C\C=C\C=C\[C@@H](O)[C@@H](O)CCCC(=O)OC (relative stereo) [15-R/S-methyl, LXA4, 5S,6R,15R/S-trihydroxy-15-methyl-7,9,13-trans-11-cis-eicosatetraenoic acid, methyl ester]
induction of endothelial cell migration, compound alone [1]: did not induce endothelial cell migration
inhibition of VEGF-stimulated HUVEC migration ([1]; VEGF 3 ng/ml): concentration-dependent inhibition

CCCCC[C@@H](O)/C=C/C=C\C=C\C=C\[C@@H](O)[C@@H](O)CCCC(=O)O (relative stereo) [15-epi-LXA4, 5S,6R,15R-trihydroxy-7,9,13-trans-11-cis-eicosatetraenoic acid]
% inhibition of VEGF-stimulated proliferation [2]: 59.8±1.8%
induction of endothelial cell migration, compound alone [1]: did not induce endothelial cell migration
inhibition of VEGF-stimulated HUVEC migration ([1]; VEGF 3 ng/ml): concentration-dependent inhibition

CCCCC[C@H](O)/C=C/C=C\C=C\C=C\[C@@H](O)[C@@H](O)CCCC(=O)O (relative stereo) [LXA4, 5S,6R,15S-trihydroxy-7,9,13-trans-11-cis-eicosatetraenoic acid]
% inhibition of VEGF-stimulated proliferation [2]: 38.1±2.0%
induction of endothelial cell migration, compound alone [1]: did not induce endothelial cell migration
inhibition of VEGF-stimulated HUVEC migration ([1]; VEGF 3 ng/ml): concentration-dependent inhibition

CCCCC[C@H](O)[C@@H](O)/C=C/C=C/C=C\C=C\[C@@H](O)CCCC(=O)O [14-epi-LXB4]
Percent of Proliferation ([3]; 0.1 nM): 15.5 ± 1.0%
Percent of Proliferation ([3]; 1.0 nM): 18.3 ± 1.6%
Percent of Proliferation ([3]; 10 nM): 27.0 ± 5.0%
Percent of Proliferation ([3]; 100 nM): 27.7 ± 1.3%

CCCCC[C@H](O)[C@H](O)/C=C/C=C/C=C\C=C\[C@@H](O)CCCC(=O)O [15-epi-LXB4]
Percent of Proliferation ([3]; 0.1 nM): 20.1 ± 1.2%
Percent of Proliferation ([3]; 1.0 nM): 26.1 ± 2.8%
Percent of Proliferation ([3]; 10 nM): 34.0 ± 2.5%
Percent of Proliferation ([3]; 100 nM): 35.2 ± 5.2%

O=C(O)CCC[C@H](O)[C@H](O)/C=C/C=C/C=C\C=C\[C@@H](O)COc1ccc(F)cc1 [ATL-1, 15-epi-16-(para-fluoro)-phenoxy-lipoxin A4]
% of VEGF-stimulated proliferation ([2]; ATL-1 plus genistein 50 μM, 5 min, 37° C., n=3): 78.0±6.21%
% of VEGF-stimulated proliferation ([2]; ATL-1 without genistein): 38.0±2.5%
IC50 ([2]; VEGF 3 ng/ml, 3 days, MTT, read-out: IC50, inhibition of VEGF-stimulated proliferation of HUVECs): ~3 nM
concentration of maximal plateau of inhibition ([2]; VEGF-stimulated proliferation): 10 nM
% inhibition of VEGF-stimulated proliferation [2]: 63.3±3.3%
action on HUVEC proliferation, analog alone ([3]; 100 nM, no VEGF): no apparent actions
IC50 [4]: ~3 nM
maximum level of inhibition of VEGF-stimulated HUVEC migration ([1]; 10 nM, VEGF 3 ng/ml): ~45%
induction of endothelial cell migration, compound alone [1]: did not induce endothelial cell migration
inhibition of VEGF-stimulated HUVEC migration ([1]; VEGF 3 ng/ml): concentration-dependent inhibition
HUVEC remaining viable [5]: ~98%
DNA fragmentation pattern [6]: Neither the ATL-1 (100 nM) alone nor in combination with VEGF (3 ng/ml) affected DNA fragmentation pattern
reduction in the vascular index ([7]; 10 μg/pouch local, before VEGF 1 μg/pouch, day 6): ~48%
VEGF-elicited vasculature, fluorescein isothiocyanate-dextran microscopy ([7]; 10 μg/pouch, day 6): striking reduction of VEGF-elicited vasculature
vessels by CD31 immunohistochemical staining ([7]; VEGF-treated mice): marked diminution of vessels
vascular density, carmine vascular casts ([7]; VEGF-treated, day 6 air pouch linings): clearly reduced vascular density
changes in mean arterial pressure [8]: does not evoke apparent changes

CCCCC/C=C\C[C@@H](O)/C=C/C=C/C=C\[C@@H](O)CCCC(=O)O [LTB4, reference compound]
stimulated proliferation of HUVEC ([3]; 10 nM): did not give a significant response
neovascularization, compound alone ([7]; 10 μg/pouch alone, n=2): stimulated neovascularization

CCCCC/C=C\C\C=C/C=C/C=C/[C@@H](SC[C@H](N)C(=O)NCC(=O)O)[C@@H](O)CCCC(=O)O [LTD4, reference compound]
effect of LTD4 on VEGF-stimulated proliferation [2]: did not enhance or inhibit
stimulated proliferation of HUVEC ([3]; 10 nM): 42±1.2%

VEGF [reference compound]
VEGF response, proliferation of HUVEC ([3]; VEGF comparison in LTD4 experiment): 52.7±1.6%
VEGF-induced proliferation ([3]; footnote of table, VEGF comparison): VEGF-induced proliferation: 50.4 ± 4.0%
